The values below come from patent US9376725B1, “Methods of screening for compounds for treating muscular dystrophy using human ALPHA7 integrin mRNA translation regulation” (PTC Therapeutics, Inc., priority 2007, dated 2016).

One data set concerns ITGA7 mRNA. Kind of data set: fLuc reporter gene assay, ITGA7 5′-UTR and 3′-UTR stable cell line. It is filed as cell-based, human. To be noted: 7.5 μM test concentration, 24 hours, vs 0.5% DMSO, luciferase luminescence, stable 293H or RD cells. From the text:
(§1) As shown in the following examples, compounds that modulate the expression of proteins (e.g., mIGF1, ITGA7, or UTRN) have been identified or validated and have the potential to treat MD, or a form thereof. Stable muscle (RD) or kidney (293H) cell lines expressing the firefly luciferase (fLuc) reporter gene flanked by the 5′-UTR and 3′-UTR of mIGF1, ITGA7, or UTRN mRNA were constructed and used to identify or validate compounds able to specifically increase expression of a reporter gene via nucleic acid constructs comprising at least the 5′-UTR and 3′-UTR of mIGF1, ITGA7 or UTRN and to increase expression of endogenous mIGF1, ITGA7 or UTRN protein.
(§2) A high-level expression vector, pcDNA™3.1/Hygro (Invitrogen Corp., Carlsbad, Calif.) was used for preparing the constructs comprising the luciferase gene flanked by any of the 5′-UTR and 3′-UTR, the 5′-UTR or the 3′-UTR of mIGF1, ITGA7, and UTRN mRNA. In a pcDNA™3.1/Hygro vector, the UTRs and restriction sites normally associated with cloning and/or expressing a gene of interest or reporter gene were removed or replaced. For each construct containing 5′ UTR sequences, the 5′ UTR sequences with a start codon were cloned into the vector using the appropriate restriction sites.
(§3) Stable 293H and RD cell lines containing the firefly luciferase (fLuc) gene flanked by mIGF1, ITGA7, or UTRN 5′-UTR and 3′-UTR were cultured in DMEM medium supplemented with 10% FBS and 200 μg/mL hygromycin in Fisher T175 flasks. The cells were passaged every 4 days at 1:10 dilution. Cultures were kept in a 37° C. and 5% CO2 incubator. The cells were scaled-up three days before performing the assay. Two confluent T175 flasks were split into twenty T175 flasks (1:10 dilution). Cells were harvested from each confluent flask by removing all of the media and adding 4 mL of warmed trypsin to dislodge the cells. After the cells were dislodged, 16 mL of selective media was added for a final volume of 20 mL. The cells were expanded by adding 2 mL of the harvested cells into ten new T175 flasks plus 25 ml, of selective media. The twenty new flasks were placed into the 37° C., 5% CO2 incubator. On the day the assay was performed, the media was removed from the flasks and 3 mL of warmed trypsin was added to dislodge the cells. After the cells were dislodged, 10 mL of nonselective media was added to the flask. This was repeated for all twenty flasks and combined into one flask. 100 μL of the above cell culture plus 100 μL of Trypan Blue stain was counted on a hemocytometer. 38 μL of cells (approximately 263 cells/4) were plated in the presence of 2 μL of a compound to be tested (at final concentration of 7.5 μM with 0.5% DMSO).
(§4) The firefly luciferase substrate used was Luc Lite Plus Packard #6016969. Luciferase activity was immediately assayed using a ViewLux Imaging system (Perkin Elmer).
(§5) The screening assay was performed by preparing plates containing test compounds and controls, including wells that contained only vehicle or a high inhibitor concentration and wells that provided an 8-point dose response curve of puromycin, a non-specific standard control inhibitor. The cells were grown overnight in the presence of compounds or controls at 37° C. in 5% CO2. Compounds were screened once for percent inhibition at a 7.5 μM test concentration. After 24 hours, the amount of luminescence was determined using a ViewLux Imaging system (Perkin Elmer).
(§6) The results for compounds shown in the following tables indicate that the compounds of the present invention enhance post-transcriptional expression of a nucleic acid construct comprising a reporter gene operably linked to any of the 5′-UTR and 3′-UTR, the 5′-UTR or the 3′-UTR of the target mIGF1 mRNA (Table 1), ITGA7 mRNA (Table 2), or UTRN mRNA (Table 3). […]

A further data set relates to mIGF1 mRNA. As to the kind of experiment: fLuc reporter gene assay, mIGF1 5′-UTR and 3′-UTR stable cell line. As to conditions: 7.5 μM test concentration, 24 hours, vs 0.5% DMSO, luciferase luminescence, stable 293H or RD cells. The format is cell-based, human.
Description: as §1, §2, §3, §4, §5, §6
A general note: In a reporter assay the amount or activity of a reporter protein is the signal.

Another data set has as its system UTRN mRNA. As to the kind of experiment: fLuc reporter gene assay, UTRN 5′-UTR and 3′-UTR stable cell line. It is filed as cell-based, human. As to conditions: 7.5 μM test concentration, 24 hours, vs 0.5% DMSO, luciferase luminescence, stable 293H or RD cells.
Description: as §1, §2, §3, §4, §5, §6

A short description of data set [1]: CellTiter-Glo cytotoxicity assay, Huh7. It is filed as cell-based. As to conditions: human, Huh7 cells (hepatoblastoma cell line); Huh7, intermediate level of sensitivity. On the technique in general: In ATP-based viability assays light output follows the ATP content of the culture.
A short description of data set [2]: CellTiter-Glo cytotoxicity assay, U937. It is filed as cell-based. As to conditions: human, U937 cells (monocyte cell line); U937, relatively sensitive cell line. From the text:
To evaluate cytotoxicity of the compounds in the 293H and RD cell lines, the CellTiter-Glo assay (Promega) is utilized. CellTiter-Glo determines the number of viable cells in culture based on quantification of the ATP present, which signals the presence of metabolically active cells. A reduction in cellular ATP is indicative of a cytotoxic or cytostatic effect. Doxorubicin, a known cytotoxic compound, is used to address the sensitivity of the tested cell line. For relatively sensitive cell lines, such as U937 (a human monocyte cell line), the CC50 of doxorubicin ranges from 4 to 10 nM.

Data set [3] has as its system dystrophin. To be noted: mouse model; results could not be replicated; cited from earlier work.
Data set [4] concerns dystrophin. To be noted: human clinical trials; cited from earlier work.

With `Nc1ccc(Sc2cc(Cl)nc(N)n2)cc1` [Cpd 1, 4-(4-aminophenylthio)-6-chloropyrimidin-2-amine], the “ITGa7, fold increase compared to negative control” value (shortened to “ITGa7, fold increase”) in the data set with ITGA7 mRNA is “** (two stars indicate a greater than one-fold and up to two-fold increase in target mRNA)”. Also, the “mIGF1, fold increase compared to negative control” value (“mIGF1, fold increase” below) in the data set with mIGF1 mRNA is “** (two stars indicate a greater than one-fold and up to two-fold increase in target mRNA)”. For the same compound, the “UTRN, fold increase compared to negative control” value (from here on “UTRN, fold increase”) in the data set with UTRN mRNA was “** (two stars indicate a greater than one-fold and up to two-fold increase in target mRNA)”.
Consider `CN(C)c1ccc(-c2nc3cc([N+](=O)[O-])ccc3[nH]2)cc1` [Cpd 2, N,N-dimethyl-4-(5-nitro-1H-benzo[d]imidazol-2-yl)aniline], for which, in the data set on ITGA7 mRNA, the “ITGa7, fold increase” value is “**** (four stars indicate a greater than three-fold and up to four-fold increase in target mRNA)”. Further, the “mIGF1, fold increase” value in the data set on mIGF1 mRNA was “** (two stars indicate a greater than one-fold and up to two-fold increase in target mRNA)”. In addition, the “UTRN, fold increase” value in the data set with UTRN mRNA is “*** (three stars indicate a greater than two-fold and up to three-fold increase in target mRNA)”.
Regarding `CCCc1cc(Cl)n2c(nc3ccccc32)c1C#N` [Cpd 3, 1-chloro-3-propyl-benzoimidazo[1,2-a]pyridine-4-carbonitrile], the “ITGa7, fold increase” value in the data set on ITGA7 mRNA was “* (one star indicates less than one-fold increase in target mRNA)”. Besides, the “mIGF1, fold increase” value in the data set with mIGF1 mRNA is reported as “* (one star indicates less than one-fold increase in target mRNA)”. Moreover, in the data set on UTRN mRNA, the “UTRN, fold increase” value was “** (two stars indicate a greater than one-fold and up to two-fold increase in target mRNA)”.
On to `Oc1cccc(-c2nc3ccc4ccccc4c3c3c2CCC3)c1` [Cpd 4, 3-(2,3-dihydro-1H-benzo[f]cyclopenta[c]quinolin-4-yl)phenol], for which, in the data set on ITGA7 mRNA, the “ITGa7, fold increase” value is “*** (three stars indicate a greater than two-fold and up to three-fold increase in target mRNA)”. Moreover, the “mIGF1, fold increase” value with mIGF1 mRNA is “*** (three stars indicate a greater than two-fold and up to three-fold increase in target mRNA)”. In the data set on UTRN mRNA, the “UTRN, fold increase” value was “** (two stars indicate a greater than one-fold and up to two-fold increase in target mRNA)”.
As to `CCOc1ccc(C(=O)NC(=S)Nc2ccc(-c3nc4ccccc4s3)cc2)cc1[N+](=O)[O-]` [Cpd 5, N-(4-(benzo[d]thiazol-2-yl)phenylcarbamothioyl)-4-ethoxy-3-nitrobenzamide], the “ITGa7, fold increase” value in the data set with ITGA7 mRNA was “*** (three stars indicate a greater than two-fold and up to three-fold increase in target mRNA)”. Further, the “mIGF1, fold increase” value with mIGF1 mRNA is “** (two stars indicate a greater than one-fold and up to two-fold increase in target mRNA)”. Further, the “UTRN, fold increase” value with UTRN mRNA is “*** (three stars indicate a greater than two-fold and up to three-fold increase in target mRNA)”.
As to `N#CC1=C(N)Oc2c(ccc3ccccc23)C1c1cccc(C(F)(F)F)c1` (stereo not shown) [Cpd 6, 2-amino-4-(3-(trifluoromethyl)phenyl)-4H-benzo[h]chromene-3-carbonitrile], the “ITGa7, fold increase” value in the data set with ITGA7 mRNA was “* (one star indicates less than one-fold increase in target mRNA)”. The “mIGF1, fold increase” value in the data set with mIGF1 mRNA is “* (one star indicates less than one-fold increase in target mRNA)”. Also, the “UTRN, fold increase” value with UTRN mRNA is “** (two stars indicate a greater than one-fold and up to two-fold increase in target mRNA)”.
For `CCCCOc1ccc(C(=O)NC(=S)Nc2cc(-c3nc4ccccc4s3)ccc2C)cc1` [Cpd 7, N-(5-(benzo[d]thiazol-2-yl)-2-methylphenylcarbamothioyl)-4-butoxybenzamide], the “ITGa7, fold increase” value in the data set with ITGA7 mRNA is “**** (four stars indicate a greater than three-fold and up to four-fold increase in target mRNA)”. In addition, the “mIGF1, fold increase” value in the data set with mIGF1 mRNA is “*** (three stars indicate a greater than two-fold and up to three-fold increase in target mRNA)”. Moreover, the “UTRN, fold increase” value in the data set on UTRN mRNA was “** (two stars indicate a greater than one-fold and up to two-fold increase in target mRNA)”.
For orientation: CC50 means the concentration giving 50% cytotoxicity. The low end stands for greater toxicity to the cells, the high end for lower toxicity to the cells. Turning to `COc1cccc2c1C(=O)c1c(O)c3c(c(O)c1C2=O)C[C@@](O)(C(=O)CO)C[C@@H]3O[C@H]1C[C@H](N)[C@H](O)[C@H](C)O1` [doxorubicin, Doxorubicin], the CC50 in data set [1] lay in the range of 70 to 300 nM; in data set [2], 4 to 10 nM.
For the compound gentamicin, the “increase in dystrophin levels” value in the data set on dystrophin [3] was 10-20%. The “increase in expression of dystrophin” value in the data set on dystrophin [4] is listed as “no increase”.
